# According to patent publication US20050112573A1, “Method of detecting toxic substance” (priority 2001, published 2005):
# Test system: yeast genes (level of expressed mRNA)
# Experiment: DNA chip analysis of expressed mRNA of yeast genes after 2 h culture with a toxic chemical substance
# Type: cell-based, Saccharomyces cerevisiae S288C
# Procedure: Yeast (Saccharomyces cerevtisiae S288C (α SUC2mal mel gap2 CUP1)) were cultured at 25° C. on YPD medium (yeast extract 1%, polypepton 2%, glucose 2%). One of toxic chemical substances was added to the cell at logarithmic growth phase, and the cell was further cultured for two hours. Cell was cultured without any chemical substance in the same condition, and was used as control. Concentrations of the chemical substances were defined to inhibit the growth of the yeast but not lead to death.
# After the completion of cultivation, the culture was centrifuged to collect the cells. To the cells, sodium acetate buffer (50 mM sodium acetate, 10 mM EDTA, 1% SDS) was added, and the mixture was shaken at 65° C. for five minutes, followed by returning to room temperature, and obtaining the supernatant, which procedure was repeated two times. To the supernatant, ½ amount of a solution of phenol/chloroform was added, and the mixture was centrifuged to give a supernatant, which was added with an equal amount of chloroform, and the mixture was centrifuged to give a supernatant. To the supernatant, an equal amount of isopropanol containing 0.3 M sodium acetate was added, and the mixture was allowed to stand at room temperature for 30 minutes, after which the mixture was centrifuged to give a sediment of the whole RNAs. Seventy % ethanol was added to the sediment, and the mixture was again centrifuged to give a sediment, which was then dried and dissolved in water. mRNA was isolated from the whole RNAs as followings. In view of the fact that a poly A chain is attached to the 3′ terminus of mRNA, a polynucleotide having a poly T structure which was immobilized on the surface of latex beads was used to trap the mRNA, and then the mRNA was washed and eluted with spine column (Oligotex-dT30<Super>mRNA Purification Kit, Takara). Reverse transcription of the mRNA was conducted with a reverse transcriptase (Super Script II Reverse Transcriptase; catalogue No. 18064-014, GibcoBRL) using fluorescence-labeled nucleotides to give cDNAs that were introduced with Cy3-dUTP or Cy5-dUTP during the reverse transcription.
# The labeled cDNAs were dissolved in TE buffer (10 mM Tris-HCl/1 mM EDTA, pH8.0), and the solution was dropped on the DNA chip containing the whole genes of yeast (DNA Chip Research Inc. Japan) so that the cDNAs were hybridized on the DNA chip at 65° C. for over 12 hours. The fluoresces intensity of the DNA chip was read with a scanner, and the ratio relative to the fluorescence intensity resulting from the absence of chemical substance was estimated as the following, which is shown in Tables 1 to 9: [formula]
# In the Tables, “Intensity” indicated in the rightmost column is a value of the level of expressed mRNA of each gene in control cells as divided by the average level of the expressions of the whole genes.
smiles,measurement,setting,value
"CN(C)C(=S)SSC(=S)N(C)C [(10), Tetramethylthiuram disulfide]",The level of expressed mRNA in the presence of chemical substance/The level of expressed mRNA in the absence of chemical substance,yeast gene YAR010C,1.1
same,The level of expressed mRNA in the presence of chemical substance/The level of expressed mRNA in the absence of chemical substance,yeast gene YBL005W-A,1.5
same,The level of expressed mRNA in the presence of chemical substance/The level of expressed mRNA in the absence of chemical substance,yeast gene YBL041W,2.6
same,The level of expressed mRNA in the presence of chemical substance/The level of expressed mRNA in the absence of chemical substance,yeast gene YBL043W,14.7
same,The level of expressed mRNA in the presence of chemical substance/The level of expressed mRNA in the absence of chemical substance,yeast gene YBL078C,15.2
same,The level of expressed mRNA in the presence of chemical substance/The level of expressed mRNA in the absence of chemical substance,yeast gene YBR214W,3.5
same,The level of expressed mRNA in the presence of chemical substance/The level of expressed mRNA in the absence of chemical substance,yeast gene YCL020W,2.4
same,The level of expressed mRNA in the presence of chemical substance/The level of expressed mRNA in the absence of chemical substance,yeast gene YCL027W,16.3
same,The level of expressed mRNA in the presence of chemical substance/The level of expressed mRNA in the absence of chemical substance,yeast gene YCR004C,2.1
same,The level of expressed mRNA in the presence of chemical substance/The level of expressed mRNA in the absence of chemical substance,yeast gene YCR071C,1.2
same,The level of expressed mRNA in the presence of chemical substance/The level of expressed mRNA in the absence of chemical substance,yeast gene YCR088W,0.9
same,The level of expressed mRNA in the presence of chemical substance/The level of expressed mRNA in the absence of chemical substance,yeast gene YDL008W,3.0
same,The level of expressed mRNA in the presence of chemical substance/The level of expressed mRNA in the absence of chemical substance,yeast gene YDL238C,2.7
same,The level of expressed mRNA in the presence of chemical substance/The level of expressed mRNA in the absence of chemical substance,yeast gene YDR055W,2.4
same,The level of expressed mRNA in the presence of chemical substance/The level of expressed mRNA in the absence of chemical substance,yeast gene YDR084C,0.6
same,The level of expressed mRNA in the presence of chemical substance/The level of expressed mRNA in the absence of chemical substance,yeast gene YDR085C,2.3
same,The level of expressed mRNA in the presence of chemical substance/The level of expressed mRNA in the absence of chemical substance,yeast gene YDR104C,2.7
same,The level of expressed mRNA in the presence of chemical substance/The level of expressed mRNA in the absence of chemical substance,yeast gene YDR115W,1.0
same,The level of expressed mRNA in the presence of chemical substance/The level of expressed mRNA in the absence of chemical substance,yeast gene YDR259C,1.8
same,The level of expressed mRNA in the presence of chemical substance/The level of expressed mRNA in the absence of chemical substance,yeast gene YDR315C,1.6
same,The level of expressed mRNA in the presence of chemical substance/The level of expressed mRNA in the absence of chemical substance,yeast gene YDR358W,3.2
same,The level of expressed mRNA in the presence of chemical substance/The level of expressed mRNA in the absence of chemical substance,yeast gene YDR388W,0.9
same,The level of expressed mRNA in the presence of chemical substance/The level of expressed mRNA in the absence of chemical substance,yeast gene YDR432W,0.8
same,The level of expressed mRNA in the presence of chemical substance/The level of expressed mRNA in the absence of chemical substance,yeast gene YDR481C,1.6
same,The level of expressed mRNA in the presence of chemical substance/The level of expressed mRNA in the absence of chemical substance,yeast gene YDR510W,2.5
same,The level of expressed mRNA in the presence of chemical substance/The level of expressed mRNA in the absence of chemical substance,yeast gene YEL042W,0.3
same,The level of expressed mRNA in the presence of chemical substance/The level of expressed mRNA in the absence of chemical substance,yeast gene YEL066W,2.4
same,The level of expressed mRNA in the presence of chemical substance/The level of expressed mRNA in the absence of chemical substance,yeast gene YER039C,0.8
same,The level of expressed mRNA in the presence of chemical substance/The level of expressed mRNA in the absence of chemical substance,yeast gene YER107C,0.5
same,The level of expressed mRNA in the presence of chemical substance/The level of expressed mRNA in the absence of chemical substance,yeast gene YER130C,1.3
same,The level of expressed mRNA in the presence of chemical substance/The level of expressed mRNA in the absence of chemical substance,yeast gene YFL028C,1.8
same,The level of expressed mRNA in the presence of chemical substance/The level of expressed mRNA in the absence of chemical substance,yeast gene YFL043C,3.8
same,The level of expressed mRNA in the presence of chemical substance/The level of expressed mRNA in the absence of chemical substance,yeast gene YGL158W,0.9
same,The level of expressed mRNA in the presence of chemical substance/The level of expressed mRNA in the absence of chemical substance,yeast gene YGL229C,1.7
same,The level of expressed mRNA in the presence of chemical substance/The level of expressed mRNA in the absence of chemical substance,yeast gene YGR136W,2.2
same,The level of expressed mRNA in the presence of chemical substance/The level of expressed mRNA in the absence of chemical substance,yeast gene YGR189C,0.9
same,The level of expressed mRNA in the presence of chemical substance/The level of expressed mRNA in the absence of chemical substance,yeast gene YGR213C,6.9
same,The level of expressed mRNA in the presence of chemical substance/The level of expressed mRNA in the absence of chemical substance,yeast gene YGR257C,1.9
same,The level of expressed mRNA in the presence of chemical substance/The level of expressed mRNA in the absence of chemical substance,yeast gene YHR004C,0.6
same,The level of expressed mRNA in the presence of chemical substance/The level of expressed mRNA in the absence of chemical substance,yeast gene YHR071W,7.2
same,The level of expressed mRNA in the presence of chemical substance/The level of expressed mRNA in the absence of chemical substance,yeast gene YHR139C,46.6
same,The level of expressed mRNA in the presence of chemical substance/The level of expressed mRNA in the absence of chemical substance,yeast gene YHR142W,0.9
same,The level of expressed mRNA in the presence of chemical substance/The level of expressed mRNA in the absence of chemical substance,yeast gene YIL123W,0.2
same,The level of expressed mRNA in the presence of chemical substance/The level of expressed mRNA in the absence of chemical substance,yeast gene YIL140W,0.6
same,The level of expressed mRNA in the presence of chemical substance/The level of expressed mRNA in the absence of chemical substance,yeast gene YJL073W,0.7
same,The level of expressed mRNA in the presence of chemical substance/The level of expressed mRNA in the absence of chemical substance,yeast gene YJL089W,3.9
same,The level of expressed mRNA in the presence of chemical substance/The level of expressed mRNA in the absence of chemical substance,yeast gene YJL116C,2.6
same,The level of expressed mRNA in the presence of chemical substance/The level of expressed mRNA in the absence of chemical substance,yeast gene YJR004C,0.7
same,The level of expressed mRNA in the presence of chemical substance/The level of expressed mRNA in the absence of chemical substance,yeast gene YJR086W,1.1
same,The level of expressed mRNA in the presence of chemical substance/The level of expressed mRNA in the absence of chemical substance,yeast gene YKL008C,0.4
